Reference: patent publication US11617723B2, “Composition for hepatic arterial chemoembolization using human serum albumin nanoparticles carrying anticancer agent, and method for producing same” (SOGANG UNIVERSITY RESEARCH FOUNDATION, priority 2016, dated 2023)

Experiment: In vitro drug release behavior (dialysis membrane in phosphate buffer saline, 37° C.)
Format: physicochemical
Details: 2000 Da dialysis membrane, PBS, 5 mg Adriamycin, FIG. 6
Description: In addition, the human serum albumin nanoparticles and lipiodol, which is an embolic material, are mixed in various ratios using the same method as that used in hepatic arterial chemoembolization to be changed into an emulsion form, and the released Adriamycin is quantitatively analyzed to measure drug release behaviors.
To analyze Adriamycin released from the Adriamycin-bound human serum albumin nanoparticles, 1 mL (Adriamycin content: 5 mg) of each of the prepared samples is injected into a 2000 Da dialysis membrane and completely sealed. The resulting structure is added to a tube containing 10 mL of phosphate buffer saline and shaken at 37° C., and the dialysis membrane is transferred to a tube containing 10 mL of phosphate buffer saline at a predetermined time point to obtain each sample every time point. Groups of prepared samples are as follows:
Group 1.—free Adriamycin in phosphate buffer saline (free DOX (PBS)) or contrast media (free DOX(Pamiray)) • free Adriamycin & lipiodol with volume ratio of 1:4 (free DOX (1:4)) • human serum albumin nanoparticles carrying Adriamycin in phosphate buffered saline (DOX-HSA-NPs (PBS)) or a contrast medium (DOX-HSA-NPs (Pamiray)) • human serum albumin nanoparticles carrying Adriamycin & lipiodol in a volume ratio of 1:4 (DOX-HSA-NPs (1:4)) […]

SMILES: COc1cccc2c1C(=O)c1c(O)c3c(c(O)c1C2=O)C[C@@](O)(C(=O)CO)C[C@@H]3O[C@H]1C[C@H](N)[C@H](O)[C@H](C)O1 [free DOX, Adriamycin]
- time of most release of the drug: ≤ 3 h
